Assay results: ChEMBL document CHEMBL3991601, “The target landscape of clinical kinase drugs” (Science, 2017)
Active and inactive are the calls of the source.

Columns and labels:
[1] = molecular target: T1, Ras-related protein Rab-27A (Homo sapiens, UniProt P51159)
T1 sequence (P51159 whole entry): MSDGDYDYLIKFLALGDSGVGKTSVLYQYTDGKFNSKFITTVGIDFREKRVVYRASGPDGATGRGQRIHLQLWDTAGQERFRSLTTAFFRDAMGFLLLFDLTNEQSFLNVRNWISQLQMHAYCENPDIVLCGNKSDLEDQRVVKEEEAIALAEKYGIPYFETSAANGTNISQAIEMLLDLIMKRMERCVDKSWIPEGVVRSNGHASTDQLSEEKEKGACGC

[2] = molecular target: Mitogen-activated protein kinase 11 (Homo sapiens, UniProt Q15759)
[3] = molecular target: Serine/threonine-protein kinase MRCK beta (Homo sapiens, UniProt Q9Y5S2)
[4] = molecular target: Tyrosine-protein kinase Yes (Homo sapiens, UniProt P07947)
[5] = molecular target: LIM domain kinase 1 (Homo sapiens, UniProt P53667)
[6] = molecular target: Dual specificity mitogen-activated protein kinase kinase 2 (Homo sapiens, UniProt P36507)
[7] = molecular target: T2, Serine/threonine-protein kinase Nek3 (Homo sapiens, UniProt P51956)
T2 sequence (P51956 whole entry): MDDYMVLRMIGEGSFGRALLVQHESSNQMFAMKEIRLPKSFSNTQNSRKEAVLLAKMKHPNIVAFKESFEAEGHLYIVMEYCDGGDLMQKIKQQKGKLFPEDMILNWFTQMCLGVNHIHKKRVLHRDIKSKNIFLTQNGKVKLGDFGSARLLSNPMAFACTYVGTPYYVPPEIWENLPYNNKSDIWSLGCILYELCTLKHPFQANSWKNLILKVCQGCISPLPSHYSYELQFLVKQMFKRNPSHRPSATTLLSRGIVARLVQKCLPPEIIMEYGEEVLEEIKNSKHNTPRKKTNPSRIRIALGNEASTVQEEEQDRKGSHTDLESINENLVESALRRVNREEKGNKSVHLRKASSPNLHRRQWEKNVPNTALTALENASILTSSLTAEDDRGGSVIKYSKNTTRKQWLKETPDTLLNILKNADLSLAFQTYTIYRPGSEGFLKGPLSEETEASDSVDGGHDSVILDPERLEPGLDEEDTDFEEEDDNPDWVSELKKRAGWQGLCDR

[8] = molecular target: T3, Bifunctional phosphoribosylaminoimidazole carboxylase/phosphoribosylaminoimidazole succinocarboxamide synthetase (Homo sapiens, UniProt P22234)
T3 sequence (P22234 whole entry): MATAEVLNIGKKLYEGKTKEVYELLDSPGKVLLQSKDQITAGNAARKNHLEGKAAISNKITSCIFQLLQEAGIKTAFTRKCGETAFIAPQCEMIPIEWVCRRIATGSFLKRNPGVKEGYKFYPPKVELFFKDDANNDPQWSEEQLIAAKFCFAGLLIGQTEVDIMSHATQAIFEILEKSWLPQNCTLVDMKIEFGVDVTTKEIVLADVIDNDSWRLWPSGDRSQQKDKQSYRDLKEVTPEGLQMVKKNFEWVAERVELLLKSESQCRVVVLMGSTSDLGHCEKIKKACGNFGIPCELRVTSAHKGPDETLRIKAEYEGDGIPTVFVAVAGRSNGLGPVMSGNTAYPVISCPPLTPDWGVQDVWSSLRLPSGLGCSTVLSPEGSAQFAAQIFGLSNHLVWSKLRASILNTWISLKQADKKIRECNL

[9] = molecular target: Fibroblast growth factor receptor 1 (Homo sapiens, UniProt P11362)
[10] = molecular target: Putative heat shock protein HSP 90-beta 2 (Homo sapiens, UniProt Q58FF8)
[11] = molecular target: Proto-oncogene tyrosine-protein kinase Src (Homo sapiens, UniProt P12931)
[12] = molecular target: T4, Interleukin-1 receptor-associated kinase 4 (Homo sapiens, UniProt Q9NWZ3)
T4 sequence (Q9NWZ3 whole entry): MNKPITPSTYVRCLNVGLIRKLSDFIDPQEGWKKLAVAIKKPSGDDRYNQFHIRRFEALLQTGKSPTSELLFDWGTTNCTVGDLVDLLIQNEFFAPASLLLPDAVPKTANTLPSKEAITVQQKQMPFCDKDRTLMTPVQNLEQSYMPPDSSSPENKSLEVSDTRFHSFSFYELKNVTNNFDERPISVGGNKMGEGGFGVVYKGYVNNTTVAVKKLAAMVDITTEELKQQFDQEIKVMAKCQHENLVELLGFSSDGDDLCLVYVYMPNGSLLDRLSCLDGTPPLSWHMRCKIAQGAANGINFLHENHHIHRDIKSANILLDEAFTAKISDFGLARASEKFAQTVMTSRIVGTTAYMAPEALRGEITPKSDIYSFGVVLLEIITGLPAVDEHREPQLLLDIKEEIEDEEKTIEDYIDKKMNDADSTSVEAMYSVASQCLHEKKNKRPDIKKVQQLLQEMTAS

[13] = molecular target: Interleukin-1 receptor-associated kinase 1 (Homo sapiens, UniProt P51617)
[14] = molecular target: T5, Aurora kinase A (Homo sapiens, UniProt O14965)
T5 sequence (O14965 whole entry): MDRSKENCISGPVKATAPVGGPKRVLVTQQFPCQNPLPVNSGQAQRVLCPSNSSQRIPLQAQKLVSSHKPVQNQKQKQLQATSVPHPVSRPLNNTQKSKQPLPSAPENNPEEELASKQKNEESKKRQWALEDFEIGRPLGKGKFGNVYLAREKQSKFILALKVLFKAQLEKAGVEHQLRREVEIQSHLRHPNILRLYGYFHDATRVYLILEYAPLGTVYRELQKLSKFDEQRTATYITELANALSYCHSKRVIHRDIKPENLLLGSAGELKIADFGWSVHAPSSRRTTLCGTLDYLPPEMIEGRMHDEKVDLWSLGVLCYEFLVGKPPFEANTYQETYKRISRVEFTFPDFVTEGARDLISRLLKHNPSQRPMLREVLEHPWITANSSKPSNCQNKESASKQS
Further: in the data inactive means no Kd found up to 30 µM.

Sequence of Mitogen-activated protein kinase 11 (Q15759 whole entry): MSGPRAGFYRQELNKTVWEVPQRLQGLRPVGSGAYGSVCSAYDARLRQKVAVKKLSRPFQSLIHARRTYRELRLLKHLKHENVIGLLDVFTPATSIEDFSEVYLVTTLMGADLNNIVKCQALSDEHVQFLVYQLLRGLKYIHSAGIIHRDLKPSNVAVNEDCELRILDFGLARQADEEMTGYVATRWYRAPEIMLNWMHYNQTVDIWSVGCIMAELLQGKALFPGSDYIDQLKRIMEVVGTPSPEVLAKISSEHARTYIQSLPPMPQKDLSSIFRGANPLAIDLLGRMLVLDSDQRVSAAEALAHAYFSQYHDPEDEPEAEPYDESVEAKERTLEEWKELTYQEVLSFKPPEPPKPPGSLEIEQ
Sequence of Proto-oncogene tyrosine-protein kinase Src (P12931 2-536 limits assumed): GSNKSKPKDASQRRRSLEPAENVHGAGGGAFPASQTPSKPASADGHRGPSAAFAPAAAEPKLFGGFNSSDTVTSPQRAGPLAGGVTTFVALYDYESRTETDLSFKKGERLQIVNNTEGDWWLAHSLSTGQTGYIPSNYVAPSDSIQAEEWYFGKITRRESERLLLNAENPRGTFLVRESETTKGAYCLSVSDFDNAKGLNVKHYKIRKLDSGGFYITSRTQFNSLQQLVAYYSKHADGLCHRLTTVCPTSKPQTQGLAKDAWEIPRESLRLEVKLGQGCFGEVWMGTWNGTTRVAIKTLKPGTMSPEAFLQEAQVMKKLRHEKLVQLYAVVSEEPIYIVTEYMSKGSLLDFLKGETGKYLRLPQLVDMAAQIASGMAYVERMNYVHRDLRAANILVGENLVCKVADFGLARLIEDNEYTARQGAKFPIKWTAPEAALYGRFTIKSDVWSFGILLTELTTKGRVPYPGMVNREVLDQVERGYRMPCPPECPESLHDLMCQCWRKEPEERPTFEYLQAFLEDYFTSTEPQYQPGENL
Sequence of Fibroblast growth factor receptor 1 (P11362 whole entry): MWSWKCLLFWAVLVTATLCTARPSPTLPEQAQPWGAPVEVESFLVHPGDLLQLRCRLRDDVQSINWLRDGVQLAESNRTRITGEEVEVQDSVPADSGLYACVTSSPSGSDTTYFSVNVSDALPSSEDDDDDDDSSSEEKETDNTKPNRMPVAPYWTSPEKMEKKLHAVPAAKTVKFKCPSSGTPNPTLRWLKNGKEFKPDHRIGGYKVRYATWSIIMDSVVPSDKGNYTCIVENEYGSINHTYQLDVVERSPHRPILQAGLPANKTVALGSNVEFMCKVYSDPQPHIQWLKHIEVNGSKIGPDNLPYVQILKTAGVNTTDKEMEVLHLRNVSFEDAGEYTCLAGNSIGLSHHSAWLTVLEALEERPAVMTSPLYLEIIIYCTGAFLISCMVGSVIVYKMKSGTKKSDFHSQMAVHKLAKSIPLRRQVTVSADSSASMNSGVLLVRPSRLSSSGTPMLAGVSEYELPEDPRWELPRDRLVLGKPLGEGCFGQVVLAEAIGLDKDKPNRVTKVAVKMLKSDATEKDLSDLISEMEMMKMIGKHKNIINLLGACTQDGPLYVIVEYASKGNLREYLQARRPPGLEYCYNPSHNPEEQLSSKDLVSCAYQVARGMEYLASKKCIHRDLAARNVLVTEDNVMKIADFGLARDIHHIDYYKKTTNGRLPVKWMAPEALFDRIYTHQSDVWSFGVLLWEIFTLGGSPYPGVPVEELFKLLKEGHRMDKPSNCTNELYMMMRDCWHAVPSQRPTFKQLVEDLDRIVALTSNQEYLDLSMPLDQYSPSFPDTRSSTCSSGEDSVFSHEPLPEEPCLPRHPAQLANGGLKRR
Sequence of Tyrosine-protein kinase Yes (P07947 whole entry, the tested form may be a part): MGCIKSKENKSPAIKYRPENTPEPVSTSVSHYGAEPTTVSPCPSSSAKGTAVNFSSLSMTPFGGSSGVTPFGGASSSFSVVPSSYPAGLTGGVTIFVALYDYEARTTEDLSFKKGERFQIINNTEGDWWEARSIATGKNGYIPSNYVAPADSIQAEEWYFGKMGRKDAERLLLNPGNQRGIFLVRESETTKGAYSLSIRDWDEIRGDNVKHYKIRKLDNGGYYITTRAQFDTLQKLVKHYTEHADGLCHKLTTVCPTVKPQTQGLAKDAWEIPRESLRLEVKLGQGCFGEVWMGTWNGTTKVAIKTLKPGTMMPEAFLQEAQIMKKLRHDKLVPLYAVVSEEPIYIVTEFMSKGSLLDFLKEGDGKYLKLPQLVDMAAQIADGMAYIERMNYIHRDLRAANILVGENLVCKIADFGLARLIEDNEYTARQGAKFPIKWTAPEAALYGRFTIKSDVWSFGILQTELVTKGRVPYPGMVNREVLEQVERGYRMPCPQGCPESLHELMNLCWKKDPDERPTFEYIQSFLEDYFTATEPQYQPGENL
Sequence of LIM domain kinase 1 (P53667 whole entry, the tested form may be a part): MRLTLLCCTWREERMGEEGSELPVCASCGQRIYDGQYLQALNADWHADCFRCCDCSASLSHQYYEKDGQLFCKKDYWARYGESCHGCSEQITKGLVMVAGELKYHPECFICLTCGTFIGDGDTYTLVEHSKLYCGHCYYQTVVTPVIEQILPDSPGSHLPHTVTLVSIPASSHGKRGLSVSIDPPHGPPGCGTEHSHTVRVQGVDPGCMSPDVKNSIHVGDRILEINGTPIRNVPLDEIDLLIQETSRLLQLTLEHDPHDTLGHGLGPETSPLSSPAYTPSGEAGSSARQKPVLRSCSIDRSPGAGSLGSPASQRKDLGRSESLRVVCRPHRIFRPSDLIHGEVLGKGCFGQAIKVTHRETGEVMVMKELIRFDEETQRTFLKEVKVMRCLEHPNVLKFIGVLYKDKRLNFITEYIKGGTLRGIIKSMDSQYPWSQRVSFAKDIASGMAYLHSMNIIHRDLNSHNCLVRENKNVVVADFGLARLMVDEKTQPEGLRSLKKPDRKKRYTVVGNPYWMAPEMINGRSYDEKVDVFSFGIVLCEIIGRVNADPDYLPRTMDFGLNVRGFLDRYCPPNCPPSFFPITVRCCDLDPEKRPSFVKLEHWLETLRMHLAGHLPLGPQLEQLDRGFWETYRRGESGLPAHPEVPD
Sequence of Dual specificity mitogen-activated protein kinase kinase 2 (P36507 whole entry): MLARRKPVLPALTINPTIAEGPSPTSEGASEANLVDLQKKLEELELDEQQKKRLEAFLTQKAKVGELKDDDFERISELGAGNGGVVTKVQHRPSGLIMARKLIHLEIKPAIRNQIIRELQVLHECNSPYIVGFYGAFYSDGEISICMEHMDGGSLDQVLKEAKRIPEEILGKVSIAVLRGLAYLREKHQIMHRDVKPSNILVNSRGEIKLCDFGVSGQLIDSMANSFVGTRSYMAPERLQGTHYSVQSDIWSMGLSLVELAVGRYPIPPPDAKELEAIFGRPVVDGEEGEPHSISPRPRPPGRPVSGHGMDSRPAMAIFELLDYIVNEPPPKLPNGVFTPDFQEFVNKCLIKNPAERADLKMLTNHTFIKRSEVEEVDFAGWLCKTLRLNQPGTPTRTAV
Sequence of Serine/threonine-protein kinase MRCK beta (Q9Y5S2 whole entry): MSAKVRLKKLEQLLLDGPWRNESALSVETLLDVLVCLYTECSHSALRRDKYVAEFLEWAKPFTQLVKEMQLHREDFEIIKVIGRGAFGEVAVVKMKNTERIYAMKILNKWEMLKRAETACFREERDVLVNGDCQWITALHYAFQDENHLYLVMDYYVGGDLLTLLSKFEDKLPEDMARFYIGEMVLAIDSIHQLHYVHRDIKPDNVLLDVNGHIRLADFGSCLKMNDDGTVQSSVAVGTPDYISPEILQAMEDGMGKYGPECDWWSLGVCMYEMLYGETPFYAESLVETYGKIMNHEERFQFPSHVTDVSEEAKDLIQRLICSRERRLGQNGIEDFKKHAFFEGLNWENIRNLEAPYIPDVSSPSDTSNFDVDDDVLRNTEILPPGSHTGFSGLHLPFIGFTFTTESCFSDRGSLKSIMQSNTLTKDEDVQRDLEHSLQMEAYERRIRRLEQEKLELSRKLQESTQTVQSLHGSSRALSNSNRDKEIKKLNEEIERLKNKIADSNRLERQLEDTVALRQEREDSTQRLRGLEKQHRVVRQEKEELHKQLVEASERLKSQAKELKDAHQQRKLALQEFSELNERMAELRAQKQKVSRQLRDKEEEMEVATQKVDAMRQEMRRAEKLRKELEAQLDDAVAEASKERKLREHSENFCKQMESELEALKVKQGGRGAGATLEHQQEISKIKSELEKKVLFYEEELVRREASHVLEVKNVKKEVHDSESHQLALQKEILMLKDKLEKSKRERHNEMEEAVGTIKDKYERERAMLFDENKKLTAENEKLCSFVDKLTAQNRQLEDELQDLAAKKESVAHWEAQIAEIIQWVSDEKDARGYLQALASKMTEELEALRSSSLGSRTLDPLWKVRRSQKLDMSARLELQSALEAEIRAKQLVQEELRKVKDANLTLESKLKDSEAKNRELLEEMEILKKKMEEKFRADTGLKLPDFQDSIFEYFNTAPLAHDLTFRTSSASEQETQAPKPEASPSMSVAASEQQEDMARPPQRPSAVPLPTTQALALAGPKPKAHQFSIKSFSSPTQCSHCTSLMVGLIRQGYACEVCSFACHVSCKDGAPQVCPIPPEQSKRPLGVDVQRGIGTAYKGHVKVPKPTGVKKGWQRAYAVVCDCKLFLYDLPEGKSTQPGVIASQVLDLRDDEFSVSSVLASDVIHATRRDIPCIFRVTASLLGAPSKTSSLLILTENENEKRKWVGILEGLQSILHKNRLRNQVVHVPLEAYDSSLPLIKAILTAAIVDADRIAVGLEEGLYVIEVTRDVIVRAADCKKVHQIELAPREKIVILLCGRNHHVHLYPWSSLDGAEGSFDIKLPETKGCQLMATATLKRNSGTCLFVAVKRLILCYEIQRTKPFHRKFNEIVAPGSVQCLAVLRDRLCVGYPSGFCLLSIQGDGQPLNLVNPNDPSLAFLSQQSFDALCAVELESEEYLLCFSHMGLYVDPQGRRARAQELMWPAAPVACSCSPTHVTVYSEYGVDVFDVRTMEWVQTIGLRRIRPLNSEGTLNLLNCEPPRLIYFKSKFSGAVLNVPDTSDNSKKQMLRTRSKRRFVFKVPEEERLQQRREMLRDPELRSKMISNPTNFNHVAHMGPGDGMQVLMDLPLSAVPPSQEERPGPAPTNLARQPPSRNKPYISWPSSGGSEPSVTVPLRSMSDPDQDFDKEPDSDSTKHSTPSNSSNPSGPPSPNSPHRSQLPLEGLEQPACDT

Row | SMILES | Kd [1] | Kd [2] | Kd [3] | Kd [4] | Kd [5] | Kd [6] | Kd [7] | Kd [8] | Kd [9] | Kd [10] | Kd [11] | Kd [12] | Kd [13] | Kd [14]
1 | CC(=O)c1cnc2ccc(-c3cc(Cl)c(O)c(Cl)c3)nc2c1N[C@H]1CC[C@H](CN(C)C)CC1 | > 30 µM (inactive) | > 30 µM (inactive) | > 30 µM (inactive) | > 30 µM (inactive) | > 30 µM (inactive) | > 30 µM (inactive) | > 30 µM (inactive) | > 30 µM (inactive) | > 30 µM (inactive) | > 30 µM (inactive) | > 30 µM (inactive) | – | – | –
2 | CCNC(=O)C#Cc1ccc2c(c1)NC(=O)/C2=C(\Nc1ccc(CN(C)C)cc1)c1ccccc1 | > 30 µM (inactive) | > 30 µM (inactive) | > 30 µM (inactive) | 0.094 µM (active) | > 30 µM (inactive) | – | > 30 µM (inactive) | > 30 µM (inactive) | 2.51 µM (active) | > 30 µM (inactive) | 0.491 µM (active) | > 30 µM (inactive) | > 30 µM (inactive) | –
3 | Cc1nc2cc(-c3nn(C(C)C)c4ncnc(N)c34)ccc2o1 | > 30 µM (inactive) | > 30 µM (inactive) | > 30 µM (inactive) | > 30 µM (inactive) | 1.85 µM (active) | 1.92 µM (active) | > 30 µM (inactive) | > 30 µM (inactive) | – | > 30 µM (inactive) | > 30 µM (inactive) | > 30 µM (inactive) | > 30 µM (inactive) | > 30 µM (inactive)
4 | COc1cc(Nc2ncc3c(n2)-c2ccc(Cl)cc2C(c2c(F)cccc2OC)=NC3)ccc1C(=O)O [ALISERTIB] | > 30 µM (inactive) | > 30 µM (inactive) | > 30 µM (inactive) | > 30 µM (inactive) | – | – | > 30 µM (inactive) | > 30 µM (inactive) | – | > 30 µM (inactive) | > 30 µM (inactive) | – | – | –
5 | Cc1csc(-c2nnc(Nc3ccc(Oc4ncccc4-c4ccnc(N)n4)cc3)c3ccccc23)c1 [AMG-900] | > 30 µM (inactive) | > 30 µM (inactive) | > 30 µM (inactive) | > 30 µM (inactive) | > 30 µM (inactive) | 3.49 µM (active) | > 30 µM (inactive) | > 30 µM (inactive) | > 30 µM (inactive) | > 30 µM (inactive) | > 30 µM (inactive) | > 30 µM (inactive) | > 30 µM (inactive) | –
6 | O=C(Nc1c[nH]nc1-c1nc2cc(CN3CCOCC3)ccc2[nH]1)NC1CC1 [AT-9283] | > 30 µM (inactive) | > 30 µM (inactive) | > 30 µM (inactive) | 0.574 µM (active) | – | > 30 µM (inactive) | – | > 30 µM (inactive) | – | > 30 µM (inactive) | – | > 30 µM (inactive) | > 30 µM (inactive) | –
7 | CNC(=O)c1ccccc1Sc1ccc2c(/C=C/c3ccccn3)n[nH]c2c1 [AXITINIB] | > 30 µM (inactive) | – | – | – | – | – | – | > 30 µM (inactive) | – | > 30 µM (inactive) | – | – | – | –
8 | Cn1cc(C2=C(c3cn(C4CCN(Cc5ccccn5)CC4)c4ccccc34)C(=O)NC2=O)c2ccccc21 [ENZASTAURIN] | > 30 µM (inactive) | – | – | – | – | – | – | > 30 µM (inactive) | – | > 30 µM (inactive) | – | – | – | –
9 | C[C@@H](Oc1cc(-n2cnc3ccc(CN4CCN(C)CC4)cc32)sc1C(N)=O)c1ccccc1C(F)(F)F [GSK-461364] | > 30 µM (inactive) | – | – | – | – | – | – | > 30 µM (inactive) | – | > 30 µM (inactive) | – | – | – | –
10 | CCn1cc(-c2ccnc3[nH]c(-c4cccc(CN(C)C)c4)cc23)c(-c2ccc(NC(=O)N(C)C)cc2)n1 [GSK-1070916] | > 30 µM (inactive) | > 30 µM (inactive) | > 30 µM (inactive) | > 30 µM (inactive) | > 30 µM (inactive) | > 30 µM (inactive) | > 30 µM (inactive) | > 30 µM (inactive) | – | > 30 µM (inactive) | – | > 30 µM (inactive) | > 30 µM (inactive) | –
11 | Cc1[nH]c(/C=C2\C(=O)Nc3ccccc32)c(C)c1CCC(=O)O [ORANTINIB] | > 30 µM (inactive) | > 30 µM (inactive) | > 30 µM (inactive) | > 30 µM (inactive) | – | 3.23 µM (active) | > 30 µM (inactive) | > 30 µM (inactive) | – | > 30 µM (inactive) | – | – | – | –
12 | NC(=O)c1c(OCc2c(F)cc(Br)cc2F)nsc1NC(=O)NCCCCN1CCCC1 [OSI-632] | > 30 µM (inactive) | > 30 µM (inactive) | > 30 µM (inactive) | 0.881 µM (active) | – | – | > 30 µM (inactive) | > 30 µM (inactive) | – | > 30 µM (inactive) | – | – | – | –
13 | CC(=O)NCC(=O)N1[C@@H]2CC[C@H]1c1ccc(Nc3ncc(C(F)(F)F)c(NC4CCC4)n3)cc12 [PF-03814735] | > 30 µM (inactive) | > 30 µM (inactive) | > 30 µM (inactive) | > 30 µM (inactive) | – | – | > 30 µM (inactive) | > 30 µM (inactive) | – | > 30 µM (inactive) | – | – | – | –
14 | CNC(=O)c1cc(Oc2ccc(NC(=O)Nc3cc(C(C)(C)C)nn3-c3ccc4ncccc4c3)c(F)c2)ccn1 [REBASTINIB] | > 30 µM (inactive) | > 30 µM (inactive) | > 30 µM (inactive) | – | 0.535 µM (active) | > 30 µM (inactive) | > 30 µM (inactive) | > 30 µM (inactive) | – | > 30 µM (inactive) | – | 23.2 µM (active) | – | > 30 µM (inactive)
15 | O=C(NOCCO)c1cc(CN2OCCCC2=O)c(F)c(F)c1Nc1ccc(I)cc1F [RO-4987655] | > 30 µM (inactive) | – | – | – | – | – | – | > 30 µM (inactive) | – | > 30 µM (inactive) | – | – | – | –
16 | N#CC[C@H](C1CCCC1)n1cc(-c2ncnc3[nH]ccc23)cn1 [RUXOLITINIB] | > 30 µM (inactive) | – | – | – | – | – | 29.9 µM (active) | > 30 µM (inactive) | – | > 30 µM (inactive) | – | – | – | –
17 | CCS(=O)(=O)c1cccc(-c2cc(C(=O)NC3CCN(C)CC3)c(C)c3[nH]c4ncc(C)cc4c23)c1 [TAK-901] | > 30 µM (inactive) | > 30 µM (inactive) | > 30 µM (inactive) | 0.022 µM (active) | > 30 µM (inactive) | 3.95 µM (active) | > 30 µM (inactive) | > 30 µM (inactive) | 1.39 µM (active) | > 30 µM (inactive) | 0.092 µM (active) | 2.13 µM (active) | > 30 µM (inactive) | –
